# Test results taken from the supplement of paper PMC10307832.
# How the values were obtained:
# Assay in all cases: relative viability (nuclei count vs DMSO), 5 days (fraction); higher = more cells survive
# [1] = compound: C1=CC2=C(C=C(C(=C2N=C1)O)N=NC3=CC4=C(C=C3)C=C(C=C4)S(=O)(=O)O)S(=O)(=O)O + COc1cc2c(Oc3ccc(NC(=O)C4(C(=O)Nc5ccc(F)cc5)CC4)cc3F)ccnc2cc1OCCCN1CCOCC1 [Foretinib] (partner 0.25 µM)
# In short: (§1)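 Each reported value is a median over duplicate plates. It expresses relative viability: treated-well nuclei count divided by vehicle-well nuclei count. Lung cancer cell lines in 1536-well plates were dosed by pin tool a day after seeding, alone with one drug or with a fixed anchor-drug dose plus five library-drug doses (not always all listed) in √10 steps, and nuclei were counted after 5 days.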
# [2] = compound: C1=CC2=C(C=C(C(=C2N=C1)O)N=NC3=CC4=C(C=C3)C=C(C=C4)S(=O)(=O)O)S(=O)(=O)O + O=C(CCCCCCC(=O)Nc1ccccc1)NO [Vorinostat] (partner 1 µM)
# In short: as §1
# AT-7519 + Trametinib = compound: O=C(NC1CCNCC1)c1n[nH]cc1NC(=O)c1c(Cl)cccc1Cl [AT-7519] + CC(=O)Nc1cccc(-n2c(=O)n(C3CC3)c(=O)c3c(Nc4ccc(I)cc4F)n(C)c(=O)c(C)c32)c1 [Trametinib] (partner 0.02 µM)
# In short: as §1
# AT-7519 + Navitoclax = compound: O=C(NC1CCNCC1)c1n[nH]cc1NC(=O)c1c(Cl)cccc1Cl [AT-7519] + CC1(C)CCC(c2ccc(Cl)cc2)=C(CN2CCN(c3ccc(C(=O)NS(=O)(=O)c4ccc(N[C@H](CCN5CCOCC5)CSc5ccccc5)c(S(=O)(=O)C(F)(F)F)c4)cc3)CC2)C1 [Navitoclax] (partner 0.5 µM)
# In short: as §1
Cell Line,relative viability ([1]; first compound 0.08 µM),relative viability ([1]; first compound 0.253 µM),relative viability ([1]; first compound 0.8 µM),relative viability ([1]; first compound 2.53 µM),relative viability ([1]; first compound 8 µM),relative viability ([2]; first compound 0.08 µM),relative viability ([2]; first compound 0.253 µM),relative viability ([2]; first compound 0.8 µM),relative viability ([2]; first compound 2.53 µM),relative viability ([2]; first compound 8 µM),relative viability (AT-7519 + Trametinib; first compound 0.01 µM),relative viability (AT-7519 + Trametinib; first compound 0.03162 µM),relative viability (AT-7519 + Trametinib; first compound 0.3162 µM),relative viability (AT-7519 + Trametinib; first compound 1 µM),relative viability (AT-7519 + Navitoclax; first compound 0.01 µM),relative viability (AT-7519 + Navitoclax; first compound 0.03162 µM),relative viability (AT-7519 + Navitoclax; first compound 0.3162 µM),relative viability (AT-7519 + Navitoclax; first compound 1 µM)
NCI-H2405,1.1,1.04,1.06,1.03,1.04,1.01,0.937,0.942,1.02,0.932,0.664,0.643,0.61,0.299,1.02,0.829,0.853,0.528
NCI-H3122,0.967,0.977,0.925,0.982,0.973,1.16,1.04,0.96,0.814,0.948,0.255,0.213,0.225,0.148,1.02,1.07,1.06,0.558
PC-3 [JPC-3],1.1,1.03,1.08,0.99,0.951,0.648,0.819,0.751,0.843,0.709,0.715,0.667,0.767,0.53,0.754,0.714,0.867,0.934
PC-14,1.16,0.905,0.815,0.971,1.11,0.815,0.83,0.816,0.745,0.752,0.681,0.771,0.545,0.0618,0.994,1.03,0.952,0.719
RERF-LC-KJ,1.02,0.835,0.837,0.999,0.844,0.809,0.811,0.662,0.695,0.603,0.865,0.864,0.758,0.423,1.04,0.981,0.848,0.408
SK-LU-1,1.01,0.768,0.787,0.787,0.889,0.766,0.725,0.753,0.719,0.697,0.498,0.46,0.416,0.309,0.516,0.848,0.882,0.189
SK-MES-1,0.86,0.856,0.874,0.761,1.15,1.16,1.12,0.985,1.06,1.17,0.535,0.607,0.537,0.461,1.18,1.08,1.25,1.15
SW 1573,1.1,1.02,1.02,1.01,0.444,0.92,0.915,0.531,0.828,0.519,0.603,0.494,0.37,0.109,0.921,0.873,0.704,0.224
